Drawing on paper PMC6837341, “Evolutionarily conserved susceptibility of the mitochondrial respiratory chain to SDHI pesticides and its consequence on the impact of SDHIs on human cultured cells” (PLoS ONE, 2019), this text covers IC50 for seven compounds.

Read-outs that look alike come from different tables or passages of the source. A value given as a limit tells only on which side of the number the result lay.

One may read the IC50 as the concentration that gives 50% inhibition.

Assay type in all cases: biochemical
The target in assay [1] is T1, quinol cytochrome c reductase (CIII) (Botrytis cinerea, UniProt Q18ND9).
T1 sequence (Q18ND9 1-391): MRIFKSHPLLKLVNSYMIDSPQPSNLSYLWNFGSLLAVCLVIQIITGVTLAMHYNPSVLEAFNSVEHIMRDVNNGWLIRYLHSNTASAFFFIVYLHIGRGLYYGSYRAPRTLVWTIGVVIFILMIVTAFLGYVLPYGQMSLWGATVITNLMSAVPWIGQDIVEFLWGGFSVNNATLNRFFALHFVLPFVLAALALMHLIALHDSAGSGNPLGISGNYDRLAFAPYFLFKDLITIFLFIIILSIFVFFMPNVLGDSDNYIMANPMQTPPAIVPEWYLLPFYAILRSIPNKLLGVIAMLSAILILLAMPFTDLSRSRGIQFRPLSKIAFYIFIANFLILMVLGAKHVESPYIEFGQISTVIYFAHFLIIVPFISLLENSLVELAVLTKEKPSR
Description: QCCR activity, Botrytis cinerea mitochondria. As for the experimental part: The mixed population of B. cinerea fungi used in this study was kindly provided by Dr. Joelle Dupont (Museum National d’Histoire Naturelle, Paris, France). Conidia from Botrytis cinerea were obtained from 15–30 d cultures grown on malt medium agar plates. Mycelial colonies were prepared by seeding conidia from 10 colonies in liquid medium (10 g of glucose, 2 g of KH2PO4, 0.5 g of MgSO47H2O, 1 g of (NH4)2SO4, 2 g of yeast extract and deionized water up to 1 l, pH 6.2). Incubation was performed at 23°C until hyphae totally covered the surface of the bottle. The hyphae (9-cm-diameter disks) were harvested, washed twice with refrigerated distilled water and finally with mitochondria extraction medium containing 20 mM Tris (pH 7.2), 0.25 M sucrose, 40 mM KCl, 2 mM EGTA, 1 mg/ml BSA, and no cysteine. The hyphae were suspended in 150 ml of extraction medium, cut in small pieces (1 cm^2) and then disrupted at high speed for 1×2 sec and at low speed for 2×3 sec using a MultiMoulinex mixer (Moulinex, France). The suspension of disrupted hyphae was then filtered through two layers of nylon cloth (clearance 150 μm). The cloth was washed with 50 ml of extraction medium. After low-speed centrifugation (700 g for 15 min), the mitochondria were collected at 10,000 g for 20 min. The pellet was suspended in 250 μl of extraction medium, aliquoted (± 30 μl) and kept frozen at -80°C.
(§1) RC enzyme activities were spectrophotometrically measured using a pseudo-double-wavelength spectrophotometer (Cary 60, Agilent). Malonate-sensitive succinate quinone dichlorophenolindophenol (DCPIP) reductase (SQDR), as an indicator of the activity of the isolated SDH enzyme (isolated CII), and glycerol-3-phosphate quinone DCPIP reductase (GQDR), as a measure of the activity of the isolated glycerol-3-phosphate dehydrogenase (G3PDH), were assayed as previously described. […] With this aim, we measured the malonate-sensitive succinate cytochrome c reductase (SDH+CIII), glycerol-3-phosphate cytochrome c reductase (G3PDH+CIII) and antimycin-sensitive quinol cytochrome c reductase (CIII) as previously described.
(§2) The effects of eight different SDHIs (up to 500 μM; S2 Fig) were determined on four different biological materials. Because IC50 are known to be affected by the actual absolute activity of the tested enzyme, these IC50 were quantified using similar levels of SDH enzyme activity during the assay. IC50 values were determined using the AAT Bioquest IC50 calculator tool (https://www.aatbio.com/tools/ic50-calculator).

Assay [2] concerns the target T2, quinol cytochrome c reductase (CIII) (Apis mellifera, UniProt P34845).
T2 sequence (P34845 1-383): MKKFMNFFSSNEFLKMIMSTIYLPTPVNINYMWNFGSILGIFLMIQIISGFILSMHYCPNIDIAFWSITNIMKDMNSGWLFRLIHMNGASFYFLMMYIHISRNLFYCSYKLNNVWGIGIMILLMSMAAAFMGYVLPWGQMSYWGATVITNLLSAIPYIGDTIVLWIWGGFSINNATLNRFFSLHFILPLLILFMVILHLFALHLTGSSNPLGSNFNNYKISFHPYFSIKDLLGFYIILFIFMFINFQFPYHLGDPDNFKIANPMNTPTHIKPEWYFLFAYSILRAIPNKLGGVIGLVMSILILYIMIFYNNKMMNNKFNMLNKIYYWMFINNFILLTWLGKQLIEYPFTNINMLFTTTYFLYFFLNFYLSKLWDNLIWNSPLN
Description: QCCR activity, honeybee crude mitochondria. As to the method: A. mellifera individuals (n = 5) were a kind gift from Jacques Kemp (beekeeper; Saint-Rémy-lès-Chevreuse, Yvelines, France). Whole bodies of individuals frozen in dry ice, except heads, were homogenized using a 1 ml glass-glass Potter-Elvehjem homogenizer in an ice-cold medium consisting of 20 mM Tris (pH 7.2), 0.25 M sucrose, 40 mM KCl, 2 mM EGTA, and 1 mg/ml BSA. The homogenate was centrifuged at 1,500 g for 5 min. The mitochondria contained in the supernatant were spun down at 10,000 g for 10 min. The pellet of crude mitochondria was distributed as 20-μl aliquots and kept frozen at -80°C.
as §1, §2

In assay [3] the target is T3, quinol cytochrome c reductase (CIII) (Lumbricus terrestris, UniProt Q34945).
T3 sequence (Q34945 1-379): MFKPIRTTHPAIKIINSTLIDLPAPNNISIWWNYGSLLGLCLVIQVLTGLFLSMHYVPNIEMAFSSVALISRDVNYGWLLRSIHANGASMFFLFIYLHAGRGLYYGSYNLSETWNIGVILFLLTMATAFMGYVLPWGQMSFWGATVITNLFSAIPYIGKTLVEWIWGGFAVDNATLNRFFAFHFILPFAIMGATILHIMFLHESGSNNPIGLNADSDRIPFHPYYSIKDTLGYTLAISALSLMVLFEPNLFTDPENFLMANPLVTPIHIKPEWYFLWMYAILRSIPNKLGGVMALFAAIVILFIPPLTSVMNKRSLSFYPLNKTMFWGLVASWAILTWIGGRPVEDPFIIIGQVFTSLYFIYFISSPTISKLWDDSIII
Nature of the assay: QCCR activity, earthworm homogenate. As to the method: L. terrestris individuals (n = 5) were collected manually in a household compost in Epernon (France 28230) and identified by the person (Paule Bénit) in charge of this compost. Before use, the worms were washed 5 times with 1× phosphate-buffered saline. A fresh homogenate was prepared from the segments located between the prostomium and clitellum of the 5 individuals. Tissues were placed in 500 μl of an ice-cold medium consisting of 20 mM Tris (pH 7.2), 0.25 M sucrose, 40 mM KCl, 2 mM EGTA, and 1 mg/ml BSA and homogenized using a 1-ml glass-glass Potter-Elvehjem homogenizer. Low-speed centrifugation at 1,500 g for 5 min allowed heavy debris to be discarded. The supernatant was distributed as 50-μl aliquots and kept frozen at -80°C.
as §1, §2

[4] abbreviates: CIII values only indicative, read-out: IC50 QCCR.
Setting [5] is: read-out: IC50 QCCR, CIII values only indicative.

Consider `Cn1cc(C(=O)Nc2ccc(F)cc2-c2ccc(Cl)c(Cl)c2)c(C(F)F)n1` [Bixafen, bixafen], for which the IC50 in assay [1] (setting [4]) is 22.2 µM; in assay [2] (setting [4]), 5.7 µM; in assay [3] (setting [4]), no less than 500 µM.

In the case of `Cn1cc(C(=O)Nc2ccccc2-c2cc(F)c(F)c(F)c2)c(C(F)F)n1` [Fluxapyroxad, fluxapyroxad], the half-inhibitory concentration (IC50) is 67 µM in assay [1] (setting [4]), 300 µM in assay [2] (setting [4]) and greater than 500 µM in assay [3] (setting [4]).

In the case of `Cc1nn(C)c(F)c1C(=O)Nc1ccccc1C(C)CC(C)C` (stereo not drawn) [Penflufen, penflufen], the IC50 is 433 µM in assay [1] (setting [4]), greater than 500 µM in assay [2] (setting [4]) and greater than 500 µM in assay [3] (setting [4]).

For the compound `CC(C)Oc1cccc(NC(=O)c2ccccc2C(F)(F)F)c1` [Flutolanil, flutolanil], the IC50 in assay [1] (setting [5]), in assay [2] (setting [5]) and in assay [3] (setting [5]) was greater than 500 µM each time.

Consider `CC(C)C1C2CCC1c1c(NC(=O)c3cn(C)nc3C(F)F)cccc12` (stereo not drawn) [Isopyrazam, isopyrazam], for which the IC50 in assay [1] (setting [4]) came to 14.2 µM; in assay [2] (setting [4]), 87 µM; in assay [3] (setting [4]), 76 µM.

Turning to `CC(C)CC(C)c1sccc1NC(=O)c1cn(C)nc1C(F)(F)F` (stereo not drawn) [Penthiopyrad, penthiopyrad], the IC50 in assay [1] (setting [5]) was found to be 105 µM; in assay [2] (setting [5]) it was 268 µM; in assay [3] (setting [5]), 297 µM.

As for `O=C(Nc1ccccc1-c1ccc(Cl)cc1)c1cccnc1Cl` [Boscalid, boscalid], the IC50 in assay [1] (setting [5]), in assay [2] (setting [5]) and in assay [3] (setting [5]) was greater than 500 µM throughout.
